Laboratory results reported in patent publication US10617693B2, “Methods of treating and/or preventing actinic keratosis” (Athenex, Inc., priority 2017, dated 2020).

Tested on: skin of forearm or forehead of AK patients
Test: Comparison of skin reactions, photographs (FIGS. 3A-4B)
Format: in vivo, human
Excerpt: The comparison in FIGS. 3A, 3B, 4A, and 4B illustrates the lack of skin toxicity observed in the treatment of AK with topically administered KX-01 compared to the approved therapy for AK.

Structure (SMILES): O=C(Cc1ccc(-c2ccc(OCCN3CCOCC3)cc2)cn1)NCc1ccccc1 [KX-01]
- Skin reaction in the forearm (day 3 and day 5 of treatment): minimal or no adverse skin reactions
- Skin reaction in the forehead (day 8 and day 57, subject with 100% response): minimal or no adverse skin reactions
- Skin reactions compared with Picato (in vivo): fewer and less severe skin reactions
- Efficacy for clearing AK lesions compared with Picato (initial data of Examples 1, 2a, 2b): may be similar
